The values below come from patent US6352988B2, “Indane or dihydroindole derivatives” (H. Lundbeck A/S, priority 1996, dated 2002).

pIC50: −log10 of the molar value.

What is called pIC50 is −log10 of the IC50, conventionally taken in molar units. Usually inhibition stands for the change of the read-out against control, counted positive when it falls.

One assay concerns the target T1, dopamine D4 receptors in cloned human dopamine receptor subtype 4.2 membranes (Homo sapiens, UniProt P21917, DEL271-302).
T1 sequence (P21917 with tags, fused parts or gaps DEL271-302): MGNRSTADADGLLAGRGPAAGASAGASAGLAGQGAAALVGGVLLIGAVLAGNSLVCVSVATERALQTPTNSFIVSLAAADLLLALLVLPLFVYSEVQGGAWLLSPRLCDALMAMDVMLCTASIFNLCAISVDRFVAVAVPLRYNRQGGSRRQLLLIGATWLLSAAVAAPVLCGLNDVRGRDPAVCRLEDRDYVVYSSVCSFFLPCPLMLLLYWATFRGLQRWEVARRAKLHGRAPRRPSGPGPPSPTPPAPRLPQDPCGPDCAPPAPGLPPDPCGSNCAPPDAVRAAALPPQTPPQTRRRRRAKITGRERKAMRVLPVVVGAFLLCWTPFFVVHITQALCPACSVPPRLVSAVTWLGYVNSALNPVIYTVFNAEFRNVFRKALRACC
The assay is described as follows: 3H-YM-09151-2 binding (affinity for dopamine D4 receptors). Conditions: 3H-YM-09151-2, cloned human D4.2 membranes; * means that the test result is preliminary; read-out: D4-bind. IC50. On the procedure: By this method the inhibition by drugs of the binding of the dopamine D4 antagonist ^3H-YM-09151-2 to dopamine D4 receptors in cloned human dopamine receptor subtype 4.2 membranes is determined in vitro. Accordingly, this is a test for affinity for dopamine D4 receptors. The test is performed using a preparation of cloned dopamine D4 cell membranes CRM-016®, Dupharma A/S, Denmark, in accordance with the product specifications.
`CC(=O)N1CC(CCN2CC=C(c3c[nH]c4cc(Cl)ccc34)CC2)c2ccccc21` (single isomer, unassigned; (+)) [Compound 34a]: the pIC50 was 8.40.

With `C1=C(c2c[nH]c3ccccc23)CCN(CC2CCc3ccccc32)C1` (centres unmarked) [Compound 5a, 3-[1-(1-Indanylmethyl)-1,2,3,6-tetrahydropyridin-4-yl]-1H-indole], the pIC50 is 8.46.

As for `c1ccc2c(c1)CCC2CN1CCC(c2c[nH]c3ccccc23)CC1` (centres unmarked) [Compound 5b, 3-[1-(1-Indanylmethyl)piperindin-4-yl]-1H-indole], the pIC50 was 8.30.

On to `COc1cccc2c1C(CN1CC=C(c3c[nH]c4cc(Cl)ccc34)CC1)CC2` (centres unmarked) [Compound 5c, 6-Chloro-3-[1-(7-methoxyindan-1-yl)methyl-1,2,3,6-tetrahydropyridin-4-yl]-1H-indole], for which the pIC50 is 7.49.

For `COc1ccc2c(c1)C(CN1CC=C(c3c[nH]c4ccccc34)CC1)CC2` (centres unmarked) [Compound 5d, 3-[1-(6-methoxyindan-1-yl)methyl-1,2,3,6-tetrahydropyridin-4-yl]-1H-indole], the pIC50 is 7.70.

On to `N#Cc1ccc2c(c1)C(CN1CC=C(c3c[nH]c4cc(Cl)ccc34)CC1)CC2` (centres unmarked) [Compound 6a, 6-Chloro-3-[1-(6-cyano-1-indanylmethyl)-1,2,3,6-tetrahydropyridin-4-yl]-1H-indole], for which the pIC50 is 8.17.

Turning to `N#Cc1ccc2c(c1)C(CN1CCC(c3c[nH]c4cc(Cl)ccc34)CC1)CC2` (centres unmarked) [Compound 6b, 6-Chloro-3-[1-(6-cyano-1-indanylmethyl)piperidin-4-yl]-1H-indole], the pIC50 was 8.48.

Consider `CC(=O)Nc1ccc2c(c1)CCC2CN1CC=C(c2c[nH]c3cc(Cl)ccc23)CC1` (centres unmarked) [Compound 6d, 6-Chloro-3-[1-(5-acetylamino-1-indanylmethyl)-1,2,3,6-tetrahydropyridin-4-yl]-1H-indole], for which the pIC50 is 7.52.

Regarding `Clc1ccc2c(C3=CCN(CC4CCc5ccc(Br)cc54)CC3)c[nH]c2c1` (centres unmarked) [Compound 6e, 6-Chloro-3-[1-(6-bromo-1-indanylmethyl)-1,2,3,6-tetrahydropyridin-4-yl]-1H-indole], the pIC50 was 7.08.

`Fc1ccc2[nH]cc(C3CCN(CCC4CCc5ccccc54)CC3)c2c1` (centres unmarked) [Compound 8c, 5-fluoro-3-[1-[2-(indan-1-yl)ethyl]-piperidin-4-yl]-1H-indole]: the pIC50 is 8.64.

As for `Fc1ccc2[nH]cc(C3CCN(CCCCC4CCc5ccccc54)CC3)c2c1` (centres unmarked) [Compound 8e, 5-fluoro-3-[1-[4-(indan-1-yl)butan-1-yl]-piperidin-4-yl]-1H-indole], the pIC50 is 8.08.

`Clc1ccc2c(C3CCN(CCCCC4CCc5ccccc54)CC3)c[nH]c2c1` (centres unmarked) [Compound 8f, 6-Chloro-3-[1-[4-(indan-1-yl)butan-1-yl)-piperidin-4-yl]-1H-indole]: the pIC50 is 7.92.

In the case of `Clc1ccc2c(C3=CCN(CCCC4CCc5ccccc54)CC3)c[nH]c2c1` (centres unmarked) [Compound 8g, 6-Chloro-3-[1-[3-(indan-1-yl)propan-1-yl]-1,2,3,6-tetrahydropyridin-4-yl]-1H-indole], the pIC50 is 7.85.

Turning to `Clc1ccc2c(C3=CCN(CCCCC4CCc5ccccc54)CC3)c[nH]c2c1` (centres unmarked) [Compound 8h], the pIC50 is 7.47.

For `Clc1ccc2c(C3=CCN(CC4Cc5ccccc5C4)CC3)c[nH]c2c1` [Compound 11a, 6-Chloro-3-[1-(indan-2-yl)methyl-1,2,3,6-tetrahydropyridin-4-yl]-1H-indole], the pIC50 was 8.55.

For the compound `Clc1cccc2c(C3=CCN(CC4Cc5ccccc5C4)CC3)c[nH]c12` [Compound 11c, 7-Chloro-3-[1-(indan-2-yl)methyl-1,2,3,6-tetrahydropyridin-4-yl]-1H-indole], the pIC50 was 8.42.

Turning to `c1ccc2c(c1)CC(CN1CCN(c3ccc4[nH]ccc4c3)CC1)C2` [Compound 11f, 5-[4-(Indan-2-yl)methylpiperazin-1-yl]-1H-indole], the pIC50 is 8.80.

As for `Clc1ccc2c(C3=CCN(CC4CCc5ccc6[nH]ccc6c54)CC3)c[nH]c2c1` (centres unmarked) [Compound 16a, 8-[4-(6-Chloro-1H-indol-3-yl)-1,2,3,6-tetrahydropyridin-1-ylmethyl]-3,6,7,8-tetrahydro-cyclopent[e]indole], the pIC50 is 8.21.

Turning to `CC(=O)Nc1cccc2c1CC(CN1CC=C(c3c[nH]c4cc(Cl)ccc34)CC1)C2` (centres unmarked) [Compound 18a, 6-Chloro-3-[1-(4-acetylaminoindan-2-yl)methyl-1,2,3,6-tetrahydropyridine-4-yl]-1H-indole], the pIC50 was 8.12.

Take `CC(=O)Nc1cccc2c1CC(CN1CCC(c3c[nH]c4cc(Cl)ccc34)CC1)C2` (centres unmarked) [Compound 18b, 6-Chloro-3-[1-(4-acetylaminoindan-2-yl)methylpiperidin-4-yl]-1H-indole]: the pIC50 is 8.37.

In the case of `CC(=O)Nc1ccc2c(c1)C(CCN1CC=C(c3c[nH]c4cc(Cl)ccc34)CC1)CC2` (centres unmarked) [Compound 18c], the pIC50 was 7.39.

On to `CC(=O)Nc1ccc2c(c1)C(CCCN1CC=C(c3c[nH]c4cc(Cl)ccc34)CC1)CC2` (centres unmarked) [Compound 18d, 6-Chloro-3-[1-[3-(6-acetylaminoindan-1-yl)propan-1-yl]-1,2,3,6-tetrahydropyridin-4-yl]-1H-indole], for which the pIC50 was 8.14.

Regarding `CC(=O)Nc1ccc2c(c1)C(CCCCN1CC=C(c3c[nH]c4cc(Cl)ccc34)CC1)CC2` (centres unmarked) [Compound 18e, 6-Chloro-3-[1-[4-(6-acetylaminoindan-1-yl)butan-1-yl]-1,2,3,6-tetrahydropyridin-4-yl]-1H-indole], the pIC50 is 7.18.

With `CC(=O)N1CC(CCN2CC=C(c3c[nH]c4cc(Cl)ccc34)CC2)c2ccccc21` (centres unmarked) [Compound 20a, 3-[1-[2-(1-Acetyl-2,3-dihydro-1H-indol-3-yl)ethyl]-1,2,3,6-tetrahydropyridin-4-yl]-6-chloro-1H-indole], the pIC50 is 8.51.

As to `CC(=O)N1CC(CCN2CCC(c3c[nH]c4cc(Cl)ccc34)CC2)c2ccccc21` (centres unmarked) [Compound 20b, 3-[1-[2-(1-Acetyl-2,3-dihydro-1H-indol-3-yl)ethyl]piperidin-4-yl]-6-chloro-1H-indole], the pIC50 was 8.17.

With `O=CN1CC(CCN2CC=C(c3c[nH]c4cc(Cl)ccc34)CC2)c2ccccc21` (centres unmarked) [Compound 20c, 6-Chloro-3-[1-[2-(1-formyl-2,3-dihydro-1H-indol-3-yl)ethyl]-1,2,3,6-tetrahydropyridin-4yl]-1H-indole], the pIC50 was 8.62.

For the compound `O=CN1CC(CCN2CCC(c3c[nH]c4cc(Cl)ccc34)CC2)c2ccccc21` (centres unmarked) [Compound 20d, 6-Chloro-3-[1-[2-(1-formyl-2,3-dihydro-1H-indol-3-yl)ethyl]piperidin-4-yl]-1H-indole], the pIC50 is 8.52.

Take `CC(=O)N1CC(CCN2CC=C(c3c[nH]c4c(Cl)cccc34)CC2)c2ccccc21` (centres unmarked) [Compound 20f, 3-[1-[2-(1-Acetyl-2,3-dihydro-1H-indol-3-yl)ethyl]-1,2,3,6-tetrahydropyridin-4-yl]-7-chloro-1H-indole]: the pIC50 is 8.49.

Still in this assay, the particulars now being: at 50 nM; 3H-YM-09151-2, cloned human D4.2 membranes; read-out: D4-bind. % inhibition of binding at 50 nM.
Take `CC(=O)N1CC(CCN2CC=C(c3c[nH]c4cc(Cl)ccc34)CC2)c2cc(Br)ccc21` (centres unmarked) [Compound 20e, 3-[1-[2-(1-Acetyl-5-bromo-2,3-dihydro-1H-indol-3-yl)ethyl]-1,2,3,6-tetrahydropyridin-4yl]-6-chloro-1H-indole]: the inhibition at 0.05 µM was determined as 21%.
